# Reference: US6737383B1, “Herbicidal oxadiazolidines” (priority 1999, dated 2004)
# Tests used:
# [1] = tested on: rice; experiment: Test B flood test rice; format: in vivo, Oryza sativa
# Summary of the method: (§1)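 Flood test on plants grown to the 2-leaf stage; treated plants kept in greenhouse twelve to sixteen days, then visually rated against controls on a 0 (no effect) to 10 (complete control) scale.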
# [2] = tested on: rape; experiment: Test B pre/postemergence rape; format: in vivo, Brassica napus
# Summary of the method: (§2)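 Herbicidal effect was estimated by eye on a ten-point control scale after plants spent twelve to sixteen days in a greenhouse following soil or foliar treatment. Foliar sprays targeted plants at one to four leaves; all doses were formulated in a non-phytotoxic solvent with surfactant.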
# [3] = tested on: crabgrass; experiment: Test B pre/postemergence crabgrass; format: in vivo, Digitaria sanguinalis
# Summary of the method: as §2
# [4] = tested on: wheat; experiment: Test B pre/postemergence wheat; format: in vivo, Triticum aestivum
# Summary of the method: as §2
# [5] = tested on: soybean; experiment: Test B pre/postemergence soybean; format: in vivo, Glycine max
# Summary of the method: as §2
# [6] = tested on: giant foxtail; experiment: Test B pre/postemergence giant foxtail; format: in vivo, Setaria faberii
# Summary of the method: as §2
# [7] = tested on: velvetleaf; experiment: Test B pre/postemergence velvetleaf; format: in vivo, Abutilon theophrasti
# Summary of the method: as §2
# [8] = tested on: cocklebur; experiment: Test B pre/postemergence cocklebur; format: in vivo, Xanthium strumarium
# Summary of the method: as §2
# [9] = tested on: bamyardgrass; experiment: Test B flood test barnyardgrass; format: in vivo, Echinochloa crus-galli
# Summary of the method: as §1
# [10] = tested on: sugar beet; experiment: Test B pre/postemergence sugar beet; format: in vivo, Beta vulgaris
# Summary of the method: as §2
# [11] = tested on: wild oat; experiment: Test B pre/postemergence wild oat; format: in vivo, Avena fatua
# Summary of the method: as §2
# [12] = tested on: pigweed; experiment: Test B pre/postemergence pigweed; format: in vivo, Amaranthus retroflexus
# Summary of the method: as §2
# [13] = tested on: corn; experiment: Test B pre/postemergence corn; format: in vivo, Zea mays
# Summary of the method: as §2
# [14] = tested on: morningglory; experiment: Test B pre/postemergence morningglory; format: in vivo, Ipomoea hederacea
# Summary of the method: as §2
# [15] = tested on: duck salad; experiment: Test B flood test duck salad; format: in vivo, Heteranthera limosa
# Summary of the method: as §1
# [16] = tested on: purple nutsedge; experiment: Test B pre/postemergence purple nutsedge; format: in vivo, Cyperus rotundus; conditions: Postemergence
# Summary of the method: as §2
# [17] = Rate 62 g/ha, headed Pre-emergence (flood test species), scale 0 to 10 (0 no effect, 10 complete control)
# [18] = Rate 125 g/ha, Pre-emergence, flood test species, scale 0 to 10 where 0 is no effect and 10 is complete control
# [19] = Rate 250 g/ha, Pre-emergence, flood-test species, scale 0 to 10, 0 is no effect, 10 is complete control
# [20] = Rate 500 g/ha, Pre-emergence, flood test species, scale 0 to 10 (0 no effect, 10 complete control)
# [21] = Preemergence, Rate 62 g/ha, scale of 0 to 10 where 0 is no effect and 10 is complete control
# [22] = Preemergence, Rate 250 g/ha, scale of 0 to 10 where 0 is no effect and 10 is complete control
# [23] = Preemergence, Rate 500 g/ha, scale of 0 to 10 where 0 is no effect and 10 is complete control
# [24] = Rate 62 g/ha, Postemergence, scale of 0 to 10 where 0 is no effect and 10 is complete control
# [25] = Rate 125 g/ha, Postemergence, scale 0 to 10
# [26] = Rate 125 g/ha, Preemergence, scale of 0 to 10 where 0 is no effect and 10 is complete control
# [27] = Rate 500 g/ha, Postemergence, scale 0 to 10, 0 no effect, 10 complete control
smiles,measurement,setting,value
COCCOCn1c(=O)on(C(=O)N(c2ccc(F)cc2)C(C)C)c1=O [Compound 220],Rice plant response rating,[1]; [17],0
same,Rice plant response rating,[1]; [18],0
same,Rice plant response rating,[1]; [19],0
same,Rice plant response rating,[1]; [20],0
same,Rape plant response rating,[2]; [21],1
same,Rape plant response rating,[2]; [22],8
same,"Plant response rating, Rape",[2]; [23],8
same,Rape plant response rating,[2]; [24],0
same,Rape plant response rating,[2]; [25],0
same,Rape plant response rating,[2]; [26],6
same,"Plant response rating (0 to 10; 0 is no effect, 10 is complete control), Rape","[2]; Rate 250 g/ha, Postemergence",3
same,Rape plant response rating,[2]; [27],4
same,Crabgrass plant response rating,[3]; [21],7
same,Crabgrass plant response rating,[3]; [22],8
same,"Plant response rating, Crabgrass",[3]; [23],10
same,Crabgrass plant response rating,[3]; [24],3
same,Crabgrass plant response rating,[3]; [25],5
same,Crabgrass plant response rating,[3]; [26],7
same,"Plant response rating (0 to 10; 0 is no effect, 10 is complete control), Crabgrass","[3]; Rate 250 g/ha, Postemergence",7
same,Crabgrass plant response rating,[3]; [27],9
same,Wheat plant response rating,[4]; [21],6
same,Wheat plant response rating,[4]; [22],8
same,"Plant response rating, Wheat",[4]; [23],8
same,Wheat plant response rating,[4]; [24],3
same,Wheat plant response rating,[4]; [25],4
same,Wheat plant response rating,[4]; [26],7
same,"Plant response rating (0 to 10; 0 is no effect, 10 is complete control), Wheat","[4]; Rate 250 g/ha, Postemergence",6
same,Wheat plant response rating,[4]; [27],6
same,Soybean plant response rating,[5]; [21],0
same,Soybean plant response rating,[5]; [22],0
same,"Plant response rating, Soybean",[5]; [23],3
same,Soybean plant response rating,[5]; [24],5
same,Soybean plant response rating,[5]; [25],5
same,Soybean plant response rating,[5]; [26],0
same,"Plant response rating (0 to 10; 0 is no effect, 10 is complete control), Soybean","[5]; Rate 250 g/ha, Postemergence",7
same,Soybean plant response rating,[5]; [27],7
same,Giant foxtail plant response rating,[6]; [21],9
same,Giant foxtail plant response rating,[6]; [22],10
same,"Plant response rating, Giant foxtail",[6]; [23],10
same,Giant foxtail plant response rating,[6]; [24],5
same,Giant foxtail plant response rating,[6]; [25],6
same,Giant foxtail plant response rating,[6]; [26],9
same,"Plant response rating (0 to 10; 0 is no effect, 10 is complete control), Giant foxtail","[6]; Rate 250 g/ha, Postemergence",8
same,Giant foxtail plant response rating,[6]; [27],8
same,Velvetleaf plant response rating,[7]; [21],1
same,Velvetleaf plant response rating,[7]; [22],4
same,"Plant response rating, Velvetleaf",[7]; [23],8
same,Velvetleaf plant response rating,[7]; [24],0
same,Velvetleaf plant response rating,[7]; [25],0
same,Velvetleaf plant response rating,[7]; [26],3
same,"Plant response rating (0 to 10; 0 is no effect, 10 is complete control), Velvetleaf","[7]; Rate 250 g/ha, Postemergence",2
same,Velvetleaf plant response rating,[7]; [27],2
same,Cocklebur plant response rating,[8]; [21],0
same,"Plant response rating, Cocklebur",[8]; [23],5
same,Cocklebur plant response rating,[8]; [24],0
same,Cocklebur plant response rating,[8]; [25],0
same,Cocklebur plant response rating,[8]; [26],0
same,"Plant response rating (0 to 10; 0 is no effect, 10 is complete control), Cocklebur","[8]; Rate 250 g/ha, Postemergence",3
same,Cocklebur plant response rating,[8]; [27],5
same,Barnyardgrass plant response rating,[9]; [17],0
same,Barnyardgrass plant response rating,[9]; [18],0
same,Barnyardgrass plant response rating,[9]; [19],2
same,Barnyardgrass plant response rating,[9]; [20],3
same,Sugarbeets plant response rating,[10]; [21],5
same,Sugarbeets plant response rating,[10]; [22],8
same,"Plant response rating, Sugarbeets",[10]; [23],8
same,Sugarbeets plant response rating,[10]; [24],0
same,Sugarbeets plant response rating,[10]; [25],0
same,Sugarbeets plant response rating,[10]; [26],6
same,"Plant response rating (0 to 10; 0 is no effect, 10 is complete control), Sugarbeets","[10]; Rate 250 g/ha, Postemergence",2
same,Sugarbeets plant response rating,[10]; [27],2
same,Wild oats plant response rating,[11]; [21],3
same,Wild oats plant response rating,[11]; [22],7
same,"Plant response rating, Wild oats",[11]; [23],8
same,Wild oats plant response rating,[11]; [24],0
same,Wild oats plant response rating,[11]; [25],0
same,Wild oats plant response rating,[11]; [26],5
same,"Plant response rating (0 to 10; 0 is no effect, 10 is complete control), Wild oats","[11]; Rate 250 g/ha, Postemergence",2
same,Wild oats plant response rating,[11]; [27],2
same,Redroot pigweed plant response rating,[12]; [21],0
same,Redroot pigweed plant response rating,[12]; [22],8
same,"Plant response rating, Redroot pigweed",[12]; [23],10
same,Redroot pigweed plant response rating,[12]; [24],0
same,Redroot pigweed plant response rating,[12]; [25],1
same,Redroot pigweed plant response rating,[12]; [26],2
same,"Plant response rating (0 to 10; 0 is no effect, 10 is complete control), Redroot pigweed","[12]; Rate 250 g/ha, Postemergence",3
same,Redroot pigweed plant response rating,[12]; [27],4
same,Corn plant response rating,[13]; [21],0
same,Corn plant response rating,[13]; [22],5
same,"Plant response rating, Corn",[13]; [23],7
same,Corn plant response rating,[13]; [24],0
same,Corn plant response rating,[13]; [25],2
same,Corn plant response rating,[13]; [26],3
same,"Plant response rating (0 to 10; 0 is no effect, 10 is complete control), Corn","[13]; Rate 250 g/ha, Postemergence",6
same,Corn plant response rating,[13]; [27],6
same,Morningglory plant response rating,[14]; [21],0
same,Morningglory plant response rating,[14]; [22],1
same,"Plant response rating, Morningglory",[14]; [23],6
same,Morningglory plant response rating,[14]; [24],5
same,Morningglory plant response rating,[14]; [25],5
same,Morningglory plant response rating,[14]; [26],0
same,"Plant response rating (0 to 10; 0 is no effect, 10 is complete control), Morningglory","[14]; Rate 250 g/ha, Postemergence",8
same,Morningglory plant response rating,[14]; [27],8
same,Ducksalad plant response rating,[15]; [17],0
same,Ducksalad plant response rating,[15]; [18],0
same,Ducksalad plant response rating,[15]; [19],0
same,Ducksalad plant response rating,[15]; [20],0
same,Nutsedge plant response rating,"[16]; Rate 62 g/ha, scale of 0 to 10 where 0 is no effect and 10 is complete control",0
same,Nutsedge plant response rating,"[16]; Rate 125 g/ha, scale 0 to 10",0
same,"Plant response rating (0 to 10; 0 is no effect, 10 is complete control), Nutsedge",[16]; Rate 250 g/ha,0
same,Nutsedge plant response rating,"[16]; Rate 500 g/ha, scale 0 to 10, 0 no effect, 10 complete control",0
